Measured values reported in patent publication US11912701B2, “Protein kinase inhibitors for promoting liver regeneration or reducing or preventing hepatocyte death” (HEPAREGENIX GMBH, priority 2018, dated 2024).

What was measured:
Type in all cases: biochemical
MKK4 = molecular target: T1, MKK4 (Homo sapiens, UniProt P45985); experiment: 33PanQinase enzyme assay, MKK4; settings: assay 'IC50'; read-out: Potency MKK4 (IC50)
T1 construct: purchased ProQinase GmbH, Freiburg, Germany (33PanQinase Assay Service)
T1 sequence (P45985 1-399): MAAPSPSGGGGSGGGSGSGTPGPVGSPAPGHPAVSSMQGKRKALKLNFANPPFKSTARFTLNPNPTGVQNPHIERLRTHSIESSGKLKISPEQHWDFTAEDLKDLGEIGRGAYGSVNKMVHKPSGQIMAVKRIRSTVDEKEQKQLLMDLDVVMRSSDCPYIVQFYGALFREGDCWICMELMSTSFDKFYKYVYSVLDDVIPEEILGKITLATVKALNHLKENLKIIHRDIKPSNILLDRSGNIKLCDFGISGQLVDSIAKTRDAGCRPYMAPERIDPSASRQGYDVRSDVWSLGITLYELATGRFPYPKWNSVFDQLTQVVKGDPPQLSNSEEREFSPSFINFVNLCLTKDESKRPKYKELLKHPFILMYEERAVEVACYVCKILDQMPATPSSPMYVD
Method in brief: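 Inhibition measured as 33Pi transfer to substrate after a 60-min, 30 °C reaction, acid-stopped and scintillation-counted.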

JNK1 = JNK1 (Homo sapiens, UniProt P45983); experiment: 33PanQinase enzyme assay, JNK1; parameters: purchased ProQinase GmbH, Freiburg, Germany (33PanQinase Assay Service); settings: ratio IC50(JNK1)/IC50(MKK4)
Method in brief: (§1)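 33Pi incorporation, read by microplate scintillation counting, measured kinase activity after 60 min at 30 °C. Reactions were quenched with 2% (v/v) H3PO4 and washed with 0.9% NaCl. IC50 derived by least-squares fitting; single doses reported as % residual activity.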

BRaf = molecular target: T2, BRaf (Homo sapiens, UniProt P15056); experiment: 33PanQinase enzyme assay, BRaf; settings: ratio IC50(BRaf)/IC50(MKK4)
T2 construct: purchased ProQinase GmbH, Freiburg, Germany (33PanQinase Assay Service)
Method in brief: as §1

MKK7 = molecular target: T3, MKK7 (Homo sapiens, UniProt O14733); experiment: 33PanQinase enzyme assay, MKK7; parameters: purchased ProQinase GmbH, Freiburg, Germany (33PanQinase Assay Service); settings: ratio IC50(MKK7)/IC50(MKK4)
T3 sequence (O14733 1-419): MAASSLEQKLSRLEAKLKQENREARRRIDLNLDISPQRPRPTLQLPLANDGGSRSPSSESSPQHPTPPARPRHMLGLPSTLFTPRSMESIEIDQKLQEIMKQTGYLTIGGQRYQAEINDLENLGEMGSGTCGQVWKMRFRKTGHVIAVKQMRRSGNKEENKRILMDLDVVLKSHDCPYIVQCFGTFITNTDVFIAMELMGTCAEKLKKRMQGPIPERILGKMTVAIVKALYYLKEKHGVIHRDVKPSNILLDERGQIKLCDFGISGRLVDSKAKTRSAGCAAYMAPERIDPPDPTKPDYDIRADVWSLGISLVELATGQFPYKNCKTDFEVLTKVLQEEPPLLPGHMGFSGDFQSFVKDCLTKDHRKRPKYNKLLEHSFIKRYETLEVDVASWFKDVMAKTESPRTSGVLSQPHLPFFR
Method in brief: as §1

JNK1, sequence (P45983 whole entry): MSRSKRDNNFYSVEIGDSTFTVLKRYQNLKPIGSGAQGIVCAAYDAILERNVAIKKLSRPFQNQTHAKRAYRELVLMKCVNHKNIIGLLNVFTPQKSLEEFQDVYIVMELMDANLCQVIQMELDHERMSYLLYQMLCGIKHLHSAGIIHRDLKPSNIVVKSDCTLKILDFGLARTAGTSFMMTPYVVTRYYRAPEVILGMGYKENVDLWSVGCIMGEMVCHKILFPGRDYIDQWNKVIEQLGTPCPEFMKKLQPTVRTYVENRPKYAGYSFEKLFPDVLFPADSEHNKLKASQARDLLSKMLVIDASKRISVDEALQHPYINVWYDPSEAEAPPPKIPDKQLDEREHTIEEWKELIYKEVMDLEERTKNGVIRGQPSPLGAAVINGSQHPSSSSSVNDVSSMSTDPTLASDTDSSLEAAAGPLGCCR
T2 sequence (P15056 whole entry, species assumed): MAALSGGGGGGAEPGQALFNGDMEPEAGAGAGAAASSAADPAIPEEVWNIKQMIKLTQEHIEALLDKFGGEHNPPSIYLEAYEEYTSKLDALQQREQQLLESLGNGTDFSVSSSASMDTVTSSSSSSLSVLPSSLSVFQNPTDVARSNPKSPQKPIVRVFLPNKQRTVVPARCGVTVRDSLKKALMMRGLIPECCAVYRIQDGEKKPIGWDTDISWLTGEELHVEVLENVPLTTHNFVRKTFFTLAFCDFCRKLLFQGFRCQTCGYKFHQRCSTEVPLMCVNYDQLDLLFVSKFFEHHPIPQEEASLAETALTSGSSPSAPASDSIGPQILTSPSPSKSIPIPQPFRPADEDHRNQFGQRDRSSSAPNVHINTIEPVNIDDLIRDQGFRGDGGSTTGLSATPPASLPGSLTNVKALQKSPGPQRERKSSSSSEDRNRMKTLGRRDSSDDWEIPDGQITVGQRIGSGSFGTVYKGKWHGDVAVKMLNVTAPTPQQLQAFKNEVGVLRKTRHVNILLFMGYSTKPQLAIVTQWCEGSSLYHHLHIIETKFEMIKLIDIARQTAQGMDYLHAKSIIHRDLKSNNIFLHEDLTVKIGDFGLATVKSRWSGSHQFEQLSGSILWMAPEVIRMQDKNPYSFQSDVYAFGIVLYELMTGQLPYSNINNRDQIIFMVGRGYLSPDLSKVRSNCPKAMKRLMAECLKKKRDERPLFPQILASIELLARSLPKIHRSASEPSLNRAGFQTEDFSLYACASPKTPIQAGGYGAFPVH

Row | SMILES | IC50 (MKK4) | Selectivity JNK1, IC50(off-target)/IC50(MKK4) (JNK1) | Selectivity Braf, IC50(off-target)/IC50(MKK4) (BRaf) | Selectivity IVIKK7, IC50(off-target)/IC50(MKK4) (MKK7)
1 | CCCS(=O)(=O)Nc1ccc(F)c(C(=O)c2c[nH]c3ncc(N4CC(C(=O)O)C4)cc23)c1F [Example 137, 1-(3-(2,6-difluoro-3-(propylsulfonamido)benzoyl)-1H-pyrrolo[2,3-b]pyridin-5-yl)azetidine-3-carboxylic acid] | 100 to 1000 nM | + (10 ≥ IC50(off-target)/IC50(MKK4) > 3) | ◯ (3 ≥ IC50(off-target)/IC50(MKK4)) | +++ (IC50(off-target)/IC50(MKK4) > 100)
2 | CCCS(=O)(=O)Nc1c(F)ccc(C(=O)c2c[nH]c3ncc(-c4ccc(F)cc4C)cc23)c1F [Example 217, N-(2,6-difluoro-3-(5-(4-fluoro-2-methylphenyl)-1H-pyrrolo[2,3-b]pyridine-3-carbonyl)phenyl)propane-1-sulfonamide] | < 100 nM | +++ (IC50(off-target)/IC50(MKK4) > 100) | +++ (IC50(off-target)/IC50(MKK4) > 100) | +++ (IC50(off-target)/IC50(MKK4) > 100)
3 | CCCS(=O)(=O)Nc1c(F)ccc(C(=O)c2c[nH]c3ncc(-c4ccc(F)cc4)cc23)c1F [Example 216, N-(2,6-difluoro-3-(5-(4-fluorophenyl)-1H-pyrrolo[2,3-b]pyridine-3-carbonyl)phenyl)propane-1-sulfonamide] | < 100 nM | +++ (IC50(off-target)/IC50(MKK4) > 100) | +++ (IC50(off-target)/IC50(MKK4) > 100) | +++ (IC50(off-target)/IC50(MKK4) > 100)
4 | CCCS(=O)(=O)Nc1c(F)ccc(C(=O)c2c[nH]c3ncc(-c4ccc(F)cc4Cl)cc23)c1F [Example 221, N-(3-(5-(2-chloro-4-fluorophenyl)-1H-pyrrolo[2,3-b]pyridine-3-carbonyl)-2,6-difluorophenyl)propane-1-sulfonamide] | < 100 nM | ++ (100 ≥ IC50(off-target)/IC50(MKK4) > 10) | +++ (IC50(off-target)/IC50(MKK4) > 100) | +++ (IC50(off-target)/IC50(MKK4) > 100)
5 | CCCS(=O)(=O)Nc1c(F)ccc(C(=O)c2c[nH]c3ncc(-c4ccc(O)cc4Cl)cc23)c1F [Example 152, N-(3-(5-(2-chloro-4-hydroxyphenyl)-1H-pyrrolo[2,3-b]pyridine-3-carbonyl)-2,6-difluorophenyl)propane-1-sulfonamide] | < 100 nM | ++ (100 ≥ IC50(off-target)/IC50(MKK4) > 10) | +++ (IC50(off-target)/IC50(MKK4) > 100) | +++ (IC50(off-target)/IC50(MKK4) > 100)
6 | CCCS(=O)(=O)Nc1ccc(F)c(C(=O)c2c[nH]c3ncc(N4CC(O)C4)cc23)c1F [Example 134, N-(2,4-difluoro-3-(5-(3-hydroxyazetidin-1-yl)-1H-pyrrolo[2,3-b]pyridine-3-carbonyl)phenyl)propane-1-sulfonamide] | 1000 to 10000 nM | ◯ (3 ≥ IC50(off-target)/IC50(MKK4)) | ◯ (3 ≥ IC50(off-target)/IC50(MKK4)) | ++ (100 ≥ IC50(off-target)/IC50(MKK4) > 10)
7 | CCCS(=O)(=O)Nc1c(F)ccc(C(=O)c2c[nH]c3ncc(-c4cnc(NCCCOC)nc4)cc23)c1F [Example 192, N-(2,6-difluoro-3-(5-(2-((3-methoxypropyl)amino)pyrimidin-5-yl)-1H-pyrrolo[2,3-b]pyridine-3-carbonyl)phenyl)propane-1-sulfonamide] | 100 to 1000 nM | ++ (100 ≥ IC50(off-target)/IC50(MKK4) > 10) | +++ (IC50(off-target)/IC50(MKK4) > 100) | +++ (IC50(off-target)/IC50(MKK4) > 100)
8 | COc1ncc(-c2cnc3[nH]cc(C(=O)c4cccc(NS(=O)(=O)Cc5ccccc5)c4F)c3c2)cn1 [Example 130, N-(2-fluoro-3-(5-(2-methoxypyrimidin-5-yl)-1H-pyrrolo[2,3-b]pyridine-3-carbonyl)phenyl)-1-phenylmethanesulfonamide] | 100 to 1000 nM | ++ (100 ≥ IC50(off-target)/IC50(MKK4) > 10) | ++ (100 ≥ IC50(off-target)/IC50(MKK4) > 10) | +++ (IC50(off-target)/IC50(MKK4) > 100)
9 | CCCS(=O)(=O)Nc1ccc(F)c(C(=O)c2c[nH]c3ncc(-c4cccc(C(F)(F)F)c4)cc23)c1F [Example 117, N-(2,4-difluoro-3-(5-(3-(trifluoromethyl)phenyl)-1H-pyrrolo[2,3-b]pyridine-3-carbonyl)phenyl)propane-1-sulfonamide] | 1000 to 10000 nM | ◯ (3 ≥ IC50(off-target)/IC50(MKK4)) | ◯ (3 ≥ IC50(off-target)/IC50(MKK4)) | +++ (IC50(off-target)/IC50(MKK4) > 100)
10 | Cc1ncc(-c2cnc3[nH]cc(C(=O)c4ccc(F)c(NS(=O)(=O)CCC(F)(F)F)c4F)c3c2)cn1 [Example 147, N-(2,6-difluoro-3-(5-(2-methylpyrimidin-5-yl)-1H-pyrrolo[2,3-b]pyridine-3-carbonyl)phenyl)-3,3,3-trifluoropropane-1-sulfonamide] | < 100 nM | +++ (IC50(off-target)/IC50(MKK4) > 100) | ++ (100 ≥ IC50(off-target)/IC50(MKK4) > 10) | +++ (IC50(off-target)/IC50(MKK4) > 100)
11 | CCCS(=O)(=O)Nc1c(F)ccc(C(=O)c2c[nH]c3ncc(-c4cnc(C)cc4C)cc23)c1F [Example 171, N-(3-(5-(4,6-dimethylpyridin-3-yl)-1H-pyrrolo[2,3-b]pyridine-3-carbonyl)-2,6-difluorophenyl)propane-1-sulfonamide] | < 100 nM | +++ (IC50(off-target)/IC50(MKK4) > 100) | +++ (IC50(off-target)/IC50(MKK4) > 100) | +++ (IC50(off-target)/IC50(MKK4) > 100)
12 | CCCS(=O)(=O)Nc1c(F)ccc(C(=O)c2c[nH]c3ncc(-c4ccc(OCC(O)CO)cc4)cc23)c1F (centres unmarked) [Example 154, N-(3-(5-(4-(2,3-dihydroxypropoxy)phenyl)-1H-pyrrolo[2,3-b]pyridine-3-carbonyl)-2,6-difluorophenyl)propane-1-sulfonamide] | < 100 nM | ++ (100 ≥ IC50(off-target)/IC50(MKK4) > 10) | ++ (100 ≥ IC50(off-target)/IC50(MKK4) > 10) | +++ (IC50(off-target)/IC50(MKK4) > 100)

Results, then the molecule that gave them:

Row | IC50 (MKK4) | Selectivity JNK1, IC50(off-target)/IC50(MKK4) (JNK1) | Selectivity Braf, IC50(off-target)/IC50(MKK4) (BRaf) | Selectivity IVIKK7, IC50(off-target)/IC50(MKK4) (MKK7) | SMILES
13 | 100 to 1000 nM | + (10 ≥ IC50(off-target)/IC50(MKK4) > 3) | ◯ (3 ≥ IC50(off-target)/IC50(MKK4)) | +++ (IC50(off-target)/IC50(MKK4) > 100) | CCCS(=O)(=O)Nc1ccc(F)c(C(=O)c2c[nH]c3ncc(-c4cccc(C)c4)cc23)c1F [Example 114, N-(2,4-difluoro-3-(5-(m-tolyl)-1H-pyrrolo[2,3-b]pyridine-3-carbonyl)phenyl)propane-1-sulfonamide]
14 | < 100 nM | +++ (IC50(off-target)/IC50(MKK4) > 100) | +++ (IC50(off-target)/IC50(MKK4) > 100) | +++ (IC50(off-target)/IC50(MKK4) > 100) | CCCS(=O)(=O)Nc1c(F)ccc(C(=O)c2c[nH]c3ncc(-c4ccncc4C)cc23)c1F [Example 235, N-(2,6-difluoro-3-(5-(3-methylpyridin-4-yl)-1H-pyrrolo[2,3-b]pyridine-3-carbonyl)phenyl)propane-1-sulfonamide]
